From publication PMC3119665, “A New Drug Design Targeting the Adenosinergic System for Huntington's Disease” (PLoS ONE, 2011)

What was measured:
[1] = test system: Phosphodiesterase PDE6; test: Radioligand binding panel (Table S1); parameters: species or system human; settings: 10 μM T1-11, n 2
[2] = molecular target: T1, Calcitonin Gene-Related, Peptide CGRP1 (Homo sapiens, UniProt O60894+Q16602); test: Radioligand binding panel (Table S1); settings: 10 μM T1-11, n 2
T1 construct: purchased MDS Pharma Services Taiwan

[3] = test system: Purinergic P 2Y; test: Radioligand binding panel (Table S1); parameters: species or system rat; settings: 10 μM T1-11, n 2
[4] = molecular target: T2, Adrenergic α 2C (Homo sapiens, UniProt P18825); test: Radioligand binding panel (Table S1); settings: 10 μM T1-11, n 2
T2 construct: purchased MDS Pharma Services Taiwan
T2 sequence (P18825 whole entry): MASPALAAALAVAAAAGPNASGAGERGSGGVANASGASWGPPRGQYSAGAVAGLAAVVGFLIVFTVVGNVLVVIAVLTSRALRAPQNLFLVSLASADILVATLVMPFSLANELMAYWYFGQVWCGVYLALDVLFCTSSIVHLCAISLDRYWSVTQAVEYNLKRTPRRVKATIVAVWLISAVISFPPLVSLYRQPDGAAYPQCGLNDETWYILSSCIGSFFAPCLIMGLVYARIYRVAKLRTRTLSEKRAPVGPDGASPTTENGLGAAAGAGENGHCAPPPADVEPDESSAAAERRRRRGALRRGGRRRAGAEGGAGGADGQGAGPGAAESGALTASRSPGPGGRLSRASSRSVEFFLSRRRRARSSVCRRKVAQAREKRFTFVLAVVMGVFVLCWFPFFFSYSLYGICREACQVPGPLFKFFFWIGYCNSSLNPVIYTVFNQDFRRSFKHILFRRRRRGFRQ

[5] = molecular target: T3, Adrenomedullin AM1 (Homo sapiens, UniProt O60895+Q16602); test: Radioligand binding panel (Table S1); settings: 10 μM T1-11, n 2
T3 construct: purchased MDS Pharma Services Taiwan

[6] = molecular target: T4, Interleukin IL-6 (Homo sapiens, UniProt P08887); test: Radioligand binding panel (Table S1); settings: 10 μM T1-11, n 2
T4 construct: purchased MDS Pharma Services Taiwan

[7] = molecular target: T5, Somatostatin sst1 (Homo sapiens, UniProt P30872); test: Radioligand binding panel (Table S1); settings: 10 μM T1-11, n 2
T5 construct: purchased MDS Pharma Services Taiwan
T5 sequence (P30872 whole entry): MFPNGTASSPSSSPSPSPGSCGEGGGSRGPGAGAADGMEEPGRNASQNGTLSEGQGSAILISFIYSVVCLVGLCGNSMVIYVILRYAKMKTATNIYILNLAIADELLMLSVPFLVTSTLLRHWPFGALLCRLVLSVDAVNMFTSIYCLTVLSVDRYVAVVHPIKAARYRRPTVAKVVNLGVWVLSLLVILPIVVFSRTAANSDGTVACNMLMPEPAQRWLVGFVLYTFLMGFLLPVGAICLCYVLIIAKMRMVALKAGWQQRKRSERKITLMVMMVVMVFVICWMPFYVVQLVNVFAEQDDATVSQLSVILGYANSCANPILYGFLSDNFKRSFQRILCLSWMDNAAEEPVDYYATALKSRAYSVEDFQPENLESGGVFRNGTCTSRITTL

[8] = molecular target: T6, hERG potassium channel (Homo sapiens, UniProt Q12809); test: Radioligand binding panel (Table S1); settings: 10 μM T1-11, n 2
T6 construct: purchased MDS Pharma Services Taiwan

[9] = test system: Phosphodiesterase PDE1; test: Radioligand binding panel (Table S1); parameters: species or system human; settings: 10 μM T1-11, n 2
[10] = molecular target: T7, Galanin GAL2 (Homo sapiens, UniProt O43603); test: Radioligand binding panel (Table S1); settings: 10 μM T1-11, n 2
T7 construct: purchased MDS Pharma Services Taiwan
T7 sequence (O43603 whole entry): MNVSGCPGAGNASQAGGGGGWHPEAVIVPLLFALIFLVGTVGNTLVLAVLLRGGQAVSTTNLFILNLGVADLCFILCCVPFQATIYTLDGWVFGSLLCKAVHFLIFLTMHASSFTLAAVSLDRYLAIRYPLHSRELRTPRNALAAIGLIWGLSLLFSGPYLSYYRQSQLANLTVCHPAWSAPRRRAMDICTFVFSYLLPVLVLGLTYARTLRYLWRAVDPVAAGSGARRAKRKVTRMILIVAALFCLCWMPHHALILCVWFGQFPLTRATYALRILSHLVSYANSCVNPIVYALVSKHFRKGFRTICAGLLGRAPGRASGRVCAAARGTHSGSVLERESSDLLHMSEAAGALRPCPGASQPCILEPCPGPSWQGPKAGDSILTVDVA

[11] = molecular target: T8, Platelet Activating Factor (PAF) (Homo sapiens, UniProt P25105); test: Radioligand binding panel (Table S1); settings: 10 μM T1-11, n 2
T8 construct: purchased MDS Pharma Services Taiwan
T8 sequence (P25105 whole entry): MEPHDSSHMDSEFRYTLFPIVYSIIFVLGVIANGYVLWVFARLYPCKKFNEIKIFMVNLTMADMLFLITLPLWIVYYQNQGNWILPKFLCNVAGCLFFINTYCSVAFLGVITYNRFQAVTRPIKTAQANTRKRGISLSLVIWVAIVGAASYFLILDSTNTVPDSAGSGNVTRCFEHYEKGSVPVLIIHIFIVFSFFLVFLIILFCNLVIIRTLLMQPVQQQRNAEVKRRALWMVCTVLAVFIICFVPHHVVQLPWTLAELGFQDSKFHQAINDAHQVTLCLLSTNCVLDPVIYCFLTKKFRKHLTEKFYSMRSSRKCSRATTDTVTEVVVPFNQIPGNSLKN

[12] = molecular target: T9, Melatonin MT1 (Homo sapiens, UniProt P48039); test: Radioligand binding panel (Table S1); settings: 10 μM T1-11, n 2
T9 construct: purchased MDS Pharma Services Taiwan

[13] = molecular target: T10, Tachykinin NK1 (Homo sapiens, UniProt P25103); test: Radioligand binding panel (Table S1); settings: 10 μM T1-11, n 2
T10 construct: purchased MDS Pharma Services Taiwan

[14] = molecular target: T11, GABAB1A (Homo sapiens, UniProt Q9UBS5); test: Radioligand binding panel (Table S1); settings: 10 μM T1-11, n 2
T11 construct: purchased MDS Pharma Services Taiwan

[15] = test system: Transporter, Glycin.e; test: Radioligand binding panel (Table S1); parameters: species or system rat; settings: 10 μM T1-11, n 2
[16] = test system: Transporter, Monoamine; test: Radioligand binding panel (Table S1); parameters: species or system rabbit; settings: 10 μM T1-11, n 2
[17] = molecular target: T12, Adrenomedullin AM2 (Homo sapiens, UniProt O60896+Q16602); test: Radioligand binding panel (Table S1); settings: 10 μM T1-11, n 2
T12 construct: purchased MDS Pharma Services Taiwan

[18] = test system: Calcium Channel L-Type, Phenylalkylamin.; test: Radioligand binding panel (Table S1); parameters: species or system rat; settings: 10 μM T1-11, n 2
[19] = molecular target: T13, Potassium Channel [KATP] (Cricetus cricetus, UniProt Q09427); test: Radioligand binding panel (Table S1); parameters: species or system hamster; settings: 10 μM T1-11, n 2
T13 construct: purchased MDS Pharma Services Taiwan
Method: (§1) Radoligand binding assays were performed by MDS Pharma Services Taiwan (Taipei, Taiwan) using standard binding protocols. For the binding assay of the A2AR [67], membrane proteins collected from HEK293 cells overexpressing the human A2AR were incubated in reaction buffer [50 mM Tris-HCl (pH 7.4), 10 mM MgCl2, 1 mM EDTA, and 2 U/mL adenosine deaminase] containing ^3H-CGS21680 (50 nM) for 90 min at 25°C. Nonspecific binding was assessed in the presence of 50 µM adenosine- 5′-N-ethylcarboxamide. […] Nonspecific binding was assessed in the presence of 1 µM IB-MECA (Tocris Bioscience, Ellisville, MS, USA).

[20] = molecular target: T14, Opiate κ (OP2, KOP) (Homo sapiens, UniProt P41145); test: Radioligand binding panel (Table S1); settings: 10 μM T1-11, n 2
T14 construct: purchased MDS Pharma Services Taiwan

[21] = test system: Glutamate, Non-Selective; test: Radioligand binding panel (Table S1); parameters: species or system rat; settings: 10 μM T1-11, n 2
[22] = molecular target: T15, Leptin (Mus musculus, UniProt P48356); test: Radioligand binding panel (Table S1); settings: 10 μM T1-11, n 2
T15 construct: purchased MDS Pharma Services Taiwan

[23] = molecular target: T16, Adrenergic β 3 (Homo sapiens, UniProt P13945); test: Radioligand binding panel (Table S1); settings: 10 μM T1-11, n 2
T16 construct: purchased MDS Pharma Services Taiwan

[24] = molecular target: T17, Serotonin (5-Hydroxytryptamine) 5-HT6 (Homo sapiens, UniProt P50406); test: Radioligand binding panel (Table S1); settings: 10 μM T1-11, n 2
T17 construct: purchased MDS Pharma Services Taiwan
T17 sequence (P50406 whole entry): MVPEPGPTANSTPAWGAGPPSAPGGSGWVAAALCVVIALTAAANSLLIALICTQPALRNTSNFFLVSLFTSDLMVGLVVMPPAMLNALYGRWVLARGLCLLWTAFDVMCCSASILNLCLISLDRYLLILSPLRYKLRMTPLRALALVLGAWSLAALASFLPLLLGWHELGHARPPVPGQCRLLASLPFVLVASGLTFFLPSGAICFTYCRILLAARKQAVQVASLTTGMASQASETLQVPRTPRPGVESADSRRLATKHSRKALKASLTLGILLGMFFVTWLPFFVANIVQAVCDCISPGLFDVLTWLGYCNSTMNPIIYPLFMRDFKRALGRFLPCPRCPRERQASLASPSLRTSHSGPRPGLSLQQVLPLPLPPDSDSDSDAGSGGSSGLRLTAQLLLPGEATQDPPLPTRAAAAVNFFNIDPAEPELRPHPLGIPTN

[25] = molecular target: T18, Serotonin (5-Hydroxytryptamine) 5-HT2A (Homo sapiens, UniProt P28223); test: Radioligand binding panel (Table S1); settings: 10 μM T1-11, n 2
T18 construct: purchased MDS Pharma Services Taiwan
T18 sequence (P28223 whole entry): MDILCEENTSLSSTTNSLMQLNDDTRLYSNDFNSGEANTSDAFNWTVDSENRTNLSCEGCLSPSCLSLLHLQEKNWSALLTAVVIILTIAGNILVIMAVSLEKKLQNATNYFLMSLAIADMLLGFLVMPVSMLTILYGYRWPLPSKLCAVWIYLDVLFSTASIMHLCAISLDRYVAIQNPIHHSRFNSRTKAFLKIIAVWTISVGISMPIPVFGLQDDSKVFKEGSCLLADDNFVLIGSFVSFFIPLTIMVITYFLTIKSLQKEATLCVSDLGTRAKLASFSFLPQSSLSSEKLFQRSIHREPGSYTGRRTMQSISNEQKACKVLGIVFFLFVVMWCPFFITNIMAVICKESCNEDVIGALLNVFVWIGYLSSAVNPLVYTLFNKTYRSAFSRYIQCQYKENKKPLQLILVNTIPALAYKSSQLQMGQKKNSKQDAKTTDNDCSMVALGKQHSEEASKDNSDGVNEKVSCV
Method: as §1

[26] = molecular target: T19, A2A adenosine receptor (Homo sapiens, UniProt P29274); test: Radioligand binding assay
T19 construct: host or cells: HEK293
T19 sequence (P29274 whole entry): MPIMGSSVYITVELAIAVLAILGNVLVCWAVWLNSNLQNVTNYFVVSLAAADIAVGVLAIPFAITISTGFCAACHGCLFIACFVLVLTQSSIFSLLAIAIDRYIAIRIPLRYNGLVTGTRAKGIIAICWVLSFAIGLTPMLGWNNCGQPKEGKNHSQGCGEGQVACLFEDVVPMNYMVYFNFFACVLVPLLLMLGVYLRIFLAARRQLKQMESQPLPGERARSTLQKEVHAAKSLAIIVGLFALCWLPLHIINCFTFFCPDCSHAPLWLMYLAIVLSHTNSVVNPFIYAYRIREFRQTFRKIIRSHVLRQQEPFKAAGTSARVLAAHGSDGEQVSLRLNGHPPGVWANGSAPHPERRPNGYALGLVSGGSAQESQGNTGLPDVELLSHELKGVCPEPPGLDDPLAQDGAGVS

[27] = molecular target: T20, GABAB1B (Homo sapiens, UniProt Q9UBS5); test: Radioligand binding panel (Table S1); settings: 10 μM T1-11, n 2
T20 construct: purchased MDS Pharma Services Taiwan

[28] = test system: Potassium Channel [SKCA]; test: Radioligand binding panel (Table S1); parameters: species or system rat; settings: 10 μM T1-11, n 2
[29] = test system: Adrenergic α 2, Non-Selective; test: Radioligand binding panel (Table S1); parameters: species or system rat; settings: 10 μM T1-11, n 2
[30] = molecular target: T21, Histamine H3 (Homo sapiens, UniProt Q9Y5N1); test: Radioligand binding panel (Table S1); settings: 10 μM T1-11, n 2
T21 construct: purchased MDS Pharma Services Taiwan

[31] = molecular target: T22, Ryanodine RyR3 (Rattus norvegicus, UniProt A0ABK0LPH6); test: Radioligand binding panel (Table S1); settings: 10 μM T1-11, n 2
T22 construct: purchased MDS Pharma Services Taiwan

[32] = molecular target: T23, Adrenergic α 1B (Rattus norvegicus, UniProt P15823); test: Radioligand binding panel (Table S1); settings: 10 μM T1-11, n 2
T23 construct: purchased MDS Pharma Services Taiwan

[33] = test system: Transforming Growth Factor-β (TGF-β); test: Radioligand binding panel (Table S1); parameters: species or system mouse; settings: 10 μM T1-11, n 2
[34] = molecular target: T24, Nicotinic Acetylcholine α1, Bungarotoxin (Homo sapiens, UniProt P02708+P07510+Q07001); test: Radioligand binding panel (Table S1)
T24 construct: purchased MDS Pharma Services Taiwan
T24 sequence (P02708 21-457): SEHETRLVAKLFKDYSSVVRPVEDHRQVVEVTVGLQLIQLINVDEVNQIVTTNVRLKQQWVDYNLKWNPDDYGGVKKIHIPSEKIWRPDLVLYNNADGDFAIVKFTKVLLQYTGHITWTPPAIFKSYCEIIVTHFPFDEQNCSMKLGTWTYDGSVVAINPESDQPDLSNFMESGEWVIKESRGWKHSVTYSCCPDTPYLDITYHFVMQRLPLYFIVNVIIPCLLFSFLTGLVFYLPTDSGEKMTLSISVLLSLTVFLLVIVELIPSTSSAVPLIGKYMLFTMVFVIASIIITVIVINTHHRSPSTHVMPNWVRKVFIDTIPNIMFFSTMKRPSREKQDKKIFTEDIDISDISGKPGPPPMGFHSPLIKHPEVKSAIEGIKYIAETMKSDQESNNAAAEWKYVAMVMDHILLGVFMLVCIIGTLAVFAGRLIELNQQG
T24 sequence (P11230 24-501, further chain): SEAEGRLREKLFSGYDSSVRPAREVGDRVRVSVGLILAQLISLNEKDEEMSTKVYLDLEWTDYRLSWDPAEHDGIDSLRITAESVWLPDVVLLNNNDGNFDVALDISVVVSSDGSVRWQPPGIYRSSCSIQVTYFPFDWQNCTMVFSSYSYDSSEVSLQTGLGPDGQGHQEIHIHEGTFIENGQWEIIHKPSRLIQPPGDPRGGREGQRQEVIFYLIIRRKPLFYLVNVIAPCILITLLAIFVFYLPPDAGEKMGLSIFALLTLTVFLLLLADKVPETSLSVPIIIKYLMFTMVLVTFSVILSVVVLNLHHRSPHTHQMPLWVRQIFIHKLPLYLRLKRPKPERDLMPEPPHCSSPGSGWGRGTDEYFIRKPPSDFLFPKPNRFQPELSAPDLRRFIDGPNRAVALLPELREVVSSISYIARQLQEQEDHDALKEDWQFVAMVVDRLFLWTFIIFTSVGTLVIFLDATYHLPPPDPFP
T24 sequence (Q07001 22-517): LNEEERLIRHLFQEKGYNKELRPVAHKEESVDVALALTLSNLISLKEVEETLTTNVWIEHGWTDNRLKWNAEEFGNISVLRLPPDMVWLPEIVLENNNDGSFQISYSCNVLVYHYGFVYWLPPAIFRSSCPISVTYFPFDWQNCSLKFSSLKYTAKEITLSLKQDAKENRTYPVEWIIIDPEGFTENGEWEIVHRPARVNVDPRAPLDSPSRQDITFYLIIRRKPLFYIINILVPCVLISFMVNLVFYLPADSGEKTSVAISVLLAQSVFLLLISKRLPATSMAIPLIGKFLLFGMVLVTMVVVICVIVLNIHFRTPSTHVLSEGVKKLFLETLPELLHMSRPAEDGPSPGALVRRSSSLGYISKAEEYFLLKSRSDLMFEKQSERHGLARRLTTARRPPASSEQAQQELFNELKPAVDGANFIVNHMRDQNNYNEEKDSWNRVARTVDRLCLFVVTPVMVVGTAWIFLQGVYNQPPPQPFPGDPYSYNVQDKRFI
T24 sequence (P07510 23-517): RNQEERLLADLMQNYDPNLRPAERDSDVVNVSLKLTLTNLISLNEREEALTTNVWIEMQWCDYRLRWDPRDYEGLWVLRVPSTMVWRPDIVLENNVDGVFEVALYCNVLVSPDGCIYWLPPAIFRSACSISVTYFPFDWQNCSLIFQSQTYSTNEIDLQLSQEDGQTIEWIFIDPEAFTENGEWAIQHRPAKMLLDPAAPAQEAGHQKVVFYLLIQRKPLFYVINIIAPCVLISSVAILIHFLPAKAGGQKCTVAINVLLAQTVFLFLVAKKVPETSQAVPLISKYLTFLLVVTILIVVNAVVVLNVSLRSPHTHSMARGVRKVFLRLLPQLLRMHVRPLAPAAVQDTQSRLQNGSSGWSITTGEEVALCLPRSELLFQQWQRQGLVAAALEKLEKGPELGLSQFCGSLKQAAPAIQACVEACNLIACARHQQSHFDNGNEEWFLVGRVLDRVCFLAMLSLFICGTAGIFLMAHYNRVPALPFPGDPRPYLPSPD

[35] = molecular target: T25, Bombesin BB1 (Homo sapiens, UniProt P28336); test: Radioligand binding panel (Table S1); settings: 10 μM T1-11, n 2
T25 construct: purchased MDS Pharma Services Taiwan

[36] = HEK293 membranes, 3H-CGS21680 50 nM

## OC[C@H]1O[C@@H](n2cnc3c(NCc4ccc(O)cc4)ncnc32)[C@H](O)[C@@H]1O [T1-11, N ^6-(4-hydroxybenzyl)adenine riboside]
[1]
  % Inhibition: 21%
[2]
  inhibition at 10 µM: 6%
[3]
  % Inhibition: 17%
[4]
  inhibition at 10 µM: 10%
[5]
  inhibition at 10 µM: 11%
[6]
  inhibition at 10 µM: -3%
[7]
  inhibition at 10 µM: -3%
[8]
  inhibition at 10 µM: -2%
[9]
  % Inhibition: 17%
[10]
  inhibition at 10 µM: 0%
[11]
  inhibition at 10 µM: 7%
[12]
  inhibition at 10 µM: -4%
[13]
  inhibition at 10 µM: 3%
[14]
  inhibition at 10 µM: -1%
[15]
  % Inhibition: 1%
[16]
  % Inhibition: -6%
[17]
  inhibition at 10 µM: 9%
[18]
  % Inhibition: -7%
[19]
  inhibition at 10 µM: 6%
[20]
  inhibition at 10 µM: 6%
[21]
  % Inhibition: -1%
[22]
  inhibition at 10 µM: 6%
[23]
  inhibition at 10 µM: -1%
[24]
  inhibition at 10 µM: 12%
[25]
  inhibition at 10 µM: 19%
[26]; 10 μM T1-11, n 2
  inhibition at 10 µM: 58%
[26]; [36]
  IC50: 4.66 µM
  Ki: 2.62 µM
[27]
  inhibition at 10 µM: -5%
[28]
  % Inhibition: 1%
[29]
  % Inhibition: 2%
[30]
  inhibition at 10 µM: 4%
[31]
  inhibition at 10 µM: -1%
[32]
  inhibition at 10 µM: 3%
[33]
  % Inhibition: -1%
[34]
  inhibition at 10 µM: 3%
[35]
  inhibition at 10 µM: -5%
